Test results: patent US20260102387A1, “IMMUNOSUPPRESSIVE COMPOUNDS” (UNIVERSITÄT BASEL, priority 2022, published 2026)
“Also recorded” adds a separate entry of the source.

What follows are compounds tested on coronin 1 promoter (assay: EC50 analysis for coronin 1 promoter driven GFP inhibition by flow cytometry in RBL cells). Settings: Amlodipine 3.125 μM, verapamil 8 μM, 48 h, flow cytometry.
Format: cell-based
Method: RBL cells that had been incubated with the indicated calcium channel blockers (amlodipine (3.125 μM) and verapamil (8 μM) concentrations for 48 h were analyzed by flow cytometry for any alteration in coronin 1 promoter driven GFP fluorescence. The results reveal no effect of calcium channel blockers on coronin 1 promoter activity (FIG. 4).
(§1) RBL cells expressing GFP under coronin 1 promoter and optionally with RBL cells expressing RFP under CMV promoter were mixed in equal numbers and incubated with the compounds at indicated concentrations for 48-65 h and analyzed by flow cytometry for alteration in coronin 1 promoter (GFP fluorescence), CMV promoter (RFP fluorescence) values. In addition, the cells were labelled with live-dead marker for assessing cell viability status by flow cytometry. Cycloheximide (CHX) serves as positive control and DMSO serves as negative controls. Effective Concentration (EC50) values for coronin 1 promoter inhibition via GFP fluorescence analysis, non-specific promoter inhibition via CMV promoter driven-RFP fluorescence analysis and cell viability via live/dead staining as a measure for toxicity in flow cytometry for compounds (10-22 and 50a-65a) are shown in Table 6 and Table 7. Based on the EC50 analysis of the inhibition of coronin 1 promoter driven GFP fluorescence the (4S,7R)-configurated eutomers were identified (Structures FIG. 9A-C). This is exemplified for compounds containing two stereocenters by eutomers 11c and 13a. […] Subsequent EC50 evaluations (Table 7) were performed with compound 13a as standard for relative potency normalized to a value of 1.00 (relative potency calculated as [EC50 GFP inhibition 13a]/[EC50 GFP inhibition compound of interest]).

Compound | coronin 1 promoter activity as assessed by GFP reduction
CCOC(=O)C1=C(COCCN)NC(C)=C(C(=O)OC)C1c1ccccc1Cl (stereo not drawn) [Amlodipine, reference compound] | no effect
COc1ccc(CCN(C)CCCC(C#N)(c2ccc(OC)c(OC)c2)C(C)C)cc1OC (stereo not drawn) [verapamil, reference compound] | no effect; also recorded: not inhibiting coronin 1 promoter activity

Same assay, conditions: RBL, RBL cells, 48-65 h, flow cytometry

Compound | EC50
COc1ccccc1[C@H]1CC(=O)C2=C(C1)NC(C)=C(C(=O)OC[C@@H]1CCCO1)[C@H]2c1cccc(O)c1 (racemic) [12c, tetrahydro-2-furanylmethyl-4-(3-hydroxyphenyl)-7-(2-methoxyphenyl)-2-methyl-5-oxo-1,4,5,6,7,8-hexahydro-3-quinolinecarboxylate] | 200 nM

Same assay, conditions: [EC50 GFP inhibition 13a]/[EC50 GFP inhibition compound of interest]; 13a = 1.00

Compound | rel. potency GFP inhibition
COc1ccccc1[C@H]1CC(=O)C2=C(C1)NC(C)=C(C(=O)OC1CCCOCC1)[C@H]2c1cccc(O)c1 (mixture of isomers) [54a, oxepan-4-yl 4-(3-hydroxyphenyl)-7-(2-methoxyphenyl)-2-methyl-5-oxo-1,4,5,6,7,8-hexahydroquinoline-3-carboxylate] | 0.88
COc1ccccc1[C@H]1CC(=O)C2=C(C1)NC(C)=C(C(=O)OC1CCOCC1)C2c1ccc(F)c(O)c1 (mixture of isomers) [66b, tetrahydro-2H-pyran-4-yl 4-(4-fluoro-3-hydroxyphenyl)-7-(2-methoxyphenyl)-2-methyl-5-oxo-1,4,5,6,7,8-hexahydroquinoline-3-carboxylate] | 0.25
COc1ccccc1C1CC(=O)C2=C(C1)NC(C)=C(C(=O)OC1CCOCC1)C2c1ccc(F)c(O)c1F (racemic) [67b, tetrahydro-2H-pyran-4-yl 4-(2,4-difluoro-3-hydroxyphenyl)-7-(2-methoxyphenyl)-2-methyl-5-oxo-1,4,5,6,7,8-hexahydroquinoline-3-carboxylate] | 0.25
COc1ccccc1[C@H]1CC(=O)C2=C(C1)NC(C)=C(C(=O)OC[C@H]1CCCO1)[C@H]2c1cccc(O)c1 [12g, tetrahydro-2-furanylmethyl (4S, 7R)-4-(3-hydroxyphenyl)-7-(2-methoxyphenyl)-2-methyl-5-oxo-1,4,5,6,7,8-hexahydro-3-quinolinecarboxylate] | 1.00
COc1ccccc1[C@@H]1CC(=O)C2=C(C1)NC(C)=C(C(=O)OC1CCOCC1)[C@@H]2c1cccc(O)c1 [13d, tetrahydro-2H-pyran-4-yl-4-(3-hydroxyphenyl)-7-(2-methoxyphenyl)-2-methyl-5-oxo-1,4,5,6,7,8-hexahydro-3-quinolinecarboxylate] | 0.09
COc1ccccc1[C@@H]1CC(=O)C2=C(C1)NC(C)=C(C(=O)OC1CCOCC1)[C@H]2c1cccc(O)c1 [13e, tetrahydro-2H-pyran-4-yl-4-(3-hydroxyphenyl)-7-(2-methoxyphenyl)-2-methyl-5-oxo-1,4,5,6,7,8-hexahydro-3-quinolinecarboxylate] | <0.01
COc1ccccc1[C@H]1CC(=O)C2=C(C1)NC(C)=C(C(=O)OC1CCOCC1)[C@@H]2c1cccc(O)c1 [13f, tetrahydro-2H-pyran-4-yl-4-(3-hydroxyphenyl)-7-(2-methoxyphenyl)-2-methyl-5-oxo-1,4,5,6,7,8-hexahydro-3-quinolinecarboxylate] | <0.01
COc1ccccc1[C@H]1CC(=O)C2=C(C1)NC(C)=C(C(=O)O[C@H]1CCOC1)[C@H]2c1cccc(O)c1 [50a, tetrahydrofuran-3-yl (4S, 7R)-4-(3-hydroxyphenyl)-7-(2-methoxyphenyl)-2-methyl-5-oxo-1,4,5,6,7,8-hexahydroquinoline-3-carboxylate] | 0.73
COc1ccccc1[C@H]1CC(=O)C2=C(C1)NC(C)=C(C(=O)O[C@@H]1CCOC1)[C@H]2c1cccc(O)c1 [50b, tetrahydrofuran-3-yl (4S, 7R)-4-(3-hydroxyphenyl)-7-(2-methoxyphenyl)-2-methyl-5-oxo-1,4,5,6,7,8-hexahydroquinoline-3-carboxylate] | 1.23
COc1ccccc1[C@H]1CC(=O)C2=C(C1)NC(C)=C(C(=O)OC1(C)CCOCC1)[C@H]2c1cccc(O)c1 [51a, 4-methyltetrahydro-2H-pyran-4-yl (4S, 7R)-4-(3-hydroxyphenyl)-7-(2-methoxyphenyl)-2-methyl-5-oxo-1,4,5,6,7,8-hexahydroquinoline-3-carboxylate] | 1.13
COc1ccccc1[C@H]1CC(=O)C2=C(C1)NC(C)=C(C(=O)OC1CC(C)(C)OC(C)(C)C1)[C@H]2c1cccc(O)c1 [52a, 2,2,6,6-tetramethyltetrahydro-2H-pyran-4-yl (4S, 7R)-4-(3-hydroxyphenyl)-7-(2-methoxyphenyl)-2-methyl-5-oxo-1,4,5,6,7,8-hexahydroquinoline-3-carboxylate] | 0.62
COc1ccccc1[C@H]1CC(=O)C2=C(C1)NC(C)=C(C(=O)OC1CC3CCC(C1)O3)[C@H]2c1cccc(O)c1 (stereo partly drawn) [53a, 8-oxabicyclo[3.2.1]octan-3-yl (4S, 7R)-4-(3-hydroxyphenyl)-7-(2-methoxyphenyl)-2-methyl-5-oxo-1,4,5,6,7,8-hexahydroquinoline-3-carboxylate] | 1.42
COc1ccccc1[C@H]1CC(=O)C2=C(C1)NC(C)=C(C(=O)O[C@H]1CO[C@H]3OCC[C@H]31)[C@H]2c1cccc(O)c1 [55a, (3R,3aS,6aR)-hexahydrofuro[2,3-b]furan-3-yl (4S, 7R)-4-(3-hydroxyphenyl)-7-(2-methoxyphenyl)-2-methyl-5-oxo-1,4,5,6,7,8-hexahydroquinoline-3-carboxylate] | 0.61
COc1ccccc1[C@H]1CC(=O)C2=C(C1)NC(C)=C(C(=O)OC1CCCC1)[C@H]2c1cccc(O)c1 [56a, cyclopentyl (4S, 7R)-4-(3-hydroxyphenyl)-7-(2-methoxyphenyl)-2-methyl-5-oxo-1,4,5,6,7,8-hexahydroquinoline-3-carboxylate] | 0.21
COc1ccccc1[C@H]1CC(=O)C2=C(C1)NC(C)=C(C(=O)OC1CCCCC1)[C@H]2c1cccc(O)c1 [57a, cyclohexyl (4S, 7R)-4-(3-hydroxyphenyl)-7-(2-methoxyphenyl)-2-methyl-5-oxo-1,4,5,6,7,8-hexahydroquinoline-3-carboxylate] | 0.24
CCOC(=O)C1=C(C)NC2=C(C(=O)C[C@H](c3ccccc3OC)C2)[C@@H]1c1cccc(O)c1 [58a, ethyl (4S, 7R)-4-(3-hydroxyphenyl)-7-(2-methoxyphenyl)-2-methyl-5-oxo-1,4,5,6,7,8-hexahydroquinoline-3-carboxylate] | 0.36
CCCCOC(=O)C1=C(C)NC2=C(C(=O)C[C@H](c3ccccc3OC)C2)[C@@H]1c1cccc(O)c1 [59a, butyl (4S, 7R)-4-(3-hydroxyphenyl)-7-(2-methoxyphenyl)-2-methyl-5-oxo-1,4,5,6,7,8-hexahydroquinoline-3-carboxylate] | 0.18
COc1ccccc1[C@H]1CC(=O)C2=C(C1)NC(C)=C(C(=O)OCC(C)(C)C)[C@H]2c1cccc(O)c1 [60a, neopentyl (4S, 7R)-4-(3-hydroxyphenyl)-7-(2-methoxyphenyl)-2-methyl-5-oxo-1,4,5,6,7,8-hexahydroquinoline-3-carboxylate] | 0.20
CCC(CC)COC(=O)C1=C(C)NC2=C(C(=O)C[C@H](c3ccccc3OC)C2)[C@@H]1c1cccc(O)c1 [61a, 2-ethylbutyl (4S, 7R)-4-(3-hydroxyphenyl)-7-(2-methoxyphenyl)-2-methyl-5-oxo-1,4,5,6,7,8-hexahydroquinoline-3-carboxylate] | 0.10
CCC(C)(C)COC(=O)C1=C(C)NC2=C(C(=O)C[C@H](c3ccccc3OC)C2)[C@@H]1c1cccc(O)c1 [62a, 2,2-dimethylbutyl (4S, 7R)-4-(3-hydroxyphenyl)-7-(2-methoxyphenyl)-2-methyl-5-oxo-1,4,5,6,7,8-hexahydroquinoline-3-carboxylate] | 0.10
COc1ccccc1[C@H]1CC(=O)C2=C(C1)NC(C)=C(C(=O)OCCCC(C)(C)C)[C@H]2c1cccc(O)c1 [63a, 4,4-dimethylpentyl (4S, 7R)-4-(3-hydroxyphenyl)-7-(2-methoxyphenyl)-2-methyl-5-oxo-1,4,5,6,7,8-hexahydroquinoline-3-carboxylate] | 0.07
CCOCCOCCOC(=O)C1=C(C)NC2=C(C(=O)C[C@H](c3ccccc3OC)C2)[C@@H]1c1cccc(O)c1 [64a, 2-(2-ethoxyethoxy)ethyl (4S, 7R)-4-(3-hydroxyphenyl)-7-(2-methoxyphenyl)-2-methyl-5-oxo-1,4,5,6,7,8-hexahydroquinoline-3-carboxylate] | 0.62
CCCCCCOCCOCCOCCOC(=O)C1=C(C)NC2=C(C(=O)C[C@H](c3ccccc3OC)C2)[C@@H]1c1cccc(O)c1 [65a, 2-(2-(2-(hexyloxy)ethoxy)ethoxy)ethyl (4S, 7R)-4-(3-hydroxyphenyl)-7-(2-methoxyphenyl)-2-methyl-5-oxo-1,4,5,6,7,8-hexahydroquinoline-3-carboxylate] | 0.12

What follows are compounds tested on RBL cells (assay: Cell viability by live-dead staining (cytotoxicity), flow cytometry). Settings: Rattus norvegicus, RBL, cell viability via live/dead staining, 48-65 h, read-out: EC50 Toxicity.
Format: cell-based, Rat
Method: as §1

Compound | EC50
COc1ccccc1[C@H]1CC(=O)C2=C(C1)NC(C)=C(C(=O)OC[C@@H]1CCCO1)[C@H]2c1cccc(O)c1 (racemic) [12c, tetrahydro-2-furanylmethyl-4-(3-hydroxyphenyl)-7-(2-methoxyphenyl)-2-methyl-5-oxo-1,4,5,6,7,8-hexahydro-3-quinolinecarboxylate] | > 4 µM
